The values below come from EP0558569B1, “MEDICAMENTS CONTAINING SULPHONAMIDES, NOVEL SULPHONAMIDES AND PROCES FOR PRODUCING THEM” (BOEHRINGER MANNHEIM GMBH, priority 1990, dated 1992).

Assay [1] relates to P 388 D.1 Makrophagen. As to the kind of experiment: Inhibition of cholesterol ester formation in macrophages under conditioned human plasma LDL (after Huber et al. 1990). It is filed as cell-based. The conditions noted are these: for inhibition at 10 µM / IC50: Mus musculus, P388D1, 18 h; for inhibition at 10 µM: read-out: Hemmung der Cholesterinesterbildung in Macrophagen (P388D.1) 10 »M %; for IC50: read-out: Hemmung der Cholesterinesterbildung in Macrophagen (P388D.1) IC₅₀. As to the method:
(§1) e) In-vitro-Wirkung der Verbindungen der Formel I und I' Hemmung der Cholesterinesterbildung in Makrophagen (nach Huber et al. (1990) Free Rad. Res. Comms. 8, 167-173): Humanplasma-LDL wurde durch sequenzielle Ultrazentrifugation bei präselektierten Dichten aus dem Plasma gesunder männlicher Nichtraucher isoliert und für 5 h bei 37° C in F-10 Medium + 1 »M Cu(II) zur Depletion seiner lipophilen Antioxidantien inkubiert. Die Bildung von Cholesterinestern in P 388 D.1 Makrophagen unter Einfluß von konditioniertem human Plasma-LDL wurde nach 18 h Inkubation der Zellen (2 x 10⁶/ml) in F-10 Medium + 1 » M Cu(II) + 50 »g/ml LDL + 5 % FCS nach Extraktion der Neutralfette dünnschichtchromatographisch gemessen. […] Stabilisierung von Plasma-LDL (nach Huber et al. (1990) Free Rad. Res. Comms. 8, 167-173): LDL (125 »g Protein/ml) wurde in 20 mM Tris-Cl pH 8, 150 mM NaCl, 10 »M CuCl₂ mit und ohne Testverbindung (gelöst in Äthanol, Äthanolendkonzentration 0,5 %) bei 42° C oxidiert. Es wurden jeweils 3 Moleküle Testsubstanz pro LDL-Partikel eingesetzt. Die Oxidation wurde kontinuierlich photometrisch bei A 234 durch die Messung der Dienbildung verfolgt. Die sogenannte "lag Phase" ist als dasjenige Zeitintervall definiert, das sich aus dem Schnittpunkt der Tangente der Kurve während der Propagationsreaktion der Lipidperoxidation und er Zeitachse ergibt. […] Hemmung der Sojabohnenlipoxygenase (15-Lipoxygenase) am LDL-Substrat (nach Cathcart et al. (1991) J. Lipid Res. 32, 63-70): LDL (100 »g Protein/ml) wurde in 20 mM Tris-Cl pH 8,3, 150 mM NaCl mit und ohne Testsubstanz (gelöst in Äthanol, Endkonzentration des Äthanol 0,5 %) mit 5000 U/2ml Sojabohnen-Lipoxygenase (Sigma, München) bei 37° C inkubiert: Die Oxidation wurde durch Messung der Diene kontinuierlich bei A 234 verfolgt. Als IC₅₀-Wert wird diejenige Konzentration der Testverbindung angegeben, die zur Halbierung der im Testansatz über die Zeit linearen Dienbildung führt.

Assay [2] deals with Plasma-LDL. As to the kind of experiment: Stabilisation of plasma LDL against Cu(II) oxidation: prolongation of the lag phase of diene formation (A 234). It is filed as biochemical, human. The conditions noted are these: 3 Moleküle Testsubstanz pro LDL-Partikel; LDL 125 »g Protein/ml, 10 »M CuCl₂, pH 8, 42° C. As to the method:
as §1

The subject of assay [3] is Ratten mit diätetisch induzierter Hypercholesterinämie. Nature of the assay: Dose-dependent effect on serum cholesterol in rats with diet-induced hypercholesterolaemia. It is filed as in vivo, SD Ratten. The conditions noted are these: for S-Cholesterin: 4 days on 2 % Cholesterin/0,2 % Cholsäure diet, measured day 5, Mittelwerte +/- SEM, n=6; for % Kontrollen: S-Cholesterin as % of controls (dose 0 = 100). The text has this: Die Verbindungen der Formel I bzw. I' sind Antioxidantien-Sulfonamidanaloga, die Hemmstoffe der Cholesterinesterbildung in der Arterienwand zur Behandlung der Arteriosklerose darstellen. a) Die Zytogenese der Atheromatose Hypercholesterinämie und Syndrome von Hypercholesterinämie/Hypertriglyceridämie Syndrome sind Risikofaktoren für die vorzeitige Arteriosklerose. In der Pathogenese der arteriosklerotischen Läsion selbst spielt die oxidative Modifikation von Lipoproteinen in der Arterienwand eine wichtige Rolle. Sie führt zur Freisetzung von chemotaktisch wirksamen Mediatoren und zur Wanderung von makrophagozytären Zellen aus dem Blut in die Arterienwand. In der Gefäßwand nehmen Makrophagen besonders intensiv oxidativ verändertes low-density lipoprotein (LDL) unreguliert auf. Die damit verbundene Erhöhung des Cholesterininfluxes und die Belastung des zellulären Stoffwechsels führt zu einem Anstieg des intrazellulären Cholesterins, einer Steigerung der Reacylierung des Cholesterins und Speicherung der Cholesterinester, die wiederum zur Ausbildung großer cytoplasmatischer Cholesterinesterdepots und zur Degeneration dieser Makrophagen ("Schaumzellen") führen. Die Schaumzellen sind das zelluläre Substrat des Atheroms und verursachen die makroskopisch sichtbaren Fettstreifen, aus denen sich dann die fibrösen Plaqueläsionen bei Fortschreiben der Erkrankung entwickeln. b) Die Grundlagen für eine antiatherosklerotische Therapie bei Fettstoffwechselstörungen Eine an die Kausalzusammenhänge orientierte antiatherosklerotische Therapie fußt idealerweise auf mindestens drei Säulen: 1. einer Senkung pathologisch erhöhter Lipidspiegel im Plasma durch Diät und/oder Pharmaka, 2. einem wirksamen Antioxidantienschutz besonders des stark atherogenen LDL zur Verminderung des oxidativen LDL-Katabolismus im Atherom und 3. einer Hemmung der Cholesterinesterbildung in den Schaumzellen der fettstreifigen Frühläsionen. Einige Senker des Serum-Cholesterins wirken, indem sie den hepatischen Pool des freien Cholesterins kontrahieren und den Katabolismus des atherogenen LDL-Cholesterins erhöhen: Ionenaustauscher interferieren z. B. mit dem enterhepatischen Cholesterinkreislauf, führen zur Depletion der Gallensäuren in den Hepatozyten und stimulieren die LDL-Cholesterinaufnahme aus dem Plasmakompartment durch eine vermehrte hepatische Aufnahme von Cholesterin über LDL und die hepatischen Apo B,E-Rezeptoren (LDL-Rezeptoren). Ähnlich wirken die Cholesterinsynthese-blocker, z. B. Lovastatin. Sie vermindern das hepatische Cholesterin und bedingen ebenfalls eine gesteigerte Aufnahme von LDL-Cholesterin aus dem Plasma über eine Vermehrung der LDL-Rezeptoren. Auch Hemmer der Cholesterinresorption bedingen eine Absenkung des hepatischen Cholesterinpools, indem sie die exogene diätetische Belastung durch Cholesterin reduzieren. Beispiele hierfür sind die sogenannten Acyl CoA: cholesterinacyltransferase (ACAT)-Hemmer, die in den Enterozyten den Cholesterinefflux via Chylomikronen durch die Hemmung der Veresterung freien Cholesterins unterbinden. In der Leber wird durch diese Hemmer der Cholesterinesterbildung zusätzlich das freie Cholesterin erhöht und die endogene hepatische Cholesterinbiosynthese durch Endprodukt-Hemmung indirekt gehemmt. In den Schaumzellen des Atheroms wird durch die Blockade der Cholesterinesterbildung erhöht freies Cholesterin in den "Reverse Cholesterol Transport pathway" der high-density lipoproteins (HDL) eingebracht, daraus entsteht ein zusätzlicher direkter antiatherogener Effekt. Antioxidantien sind Substanzen, die - allgemein gesehen - eine erhebliche Verzögerung der oxidativen Vorgänge bei einem zu schützenden Produkt bewirken. […] Es ist ein sterisch gehindertes Alkylphenol, das im LDL akkumuliert. […] Methode: 220-250 g schwere SD Ratten erhielten eine Standarddiät, die mit 2 % Cholesterin/0,2 % Cholsäure angereichert wurde, über 4 Tage. […]

For `CC(C)(C)c1cc(CCCNS(=O)(=O)c2ccc(Cl)cc2)cc(C(C)(C)C)c1O` [Beispiel 4b], the inhibition at 10 µM in assay [1] amounted to 49.2%.

On to `CC(C)(C)c1cc(CNS(=O)(=O)c2ccc(Cl)cc2)cc(C(C)(C)C)c1O` [Beispiel 2, 4-Chlorbenzolsulfo-(3,5-di-tert.butyl-4-hydroxy)benzylamid], for which, in assay [2], the “Stabilisierung von Plasma LDL: Verlängerung d. "lag-Phase" %” value came to 44%. In addition, in assay [1], the inhibition at 10 µM turned out to be 78.7% and the IC50 is 2.5 µM.

On to `CC(C)(Sc1cc(C(C)(C)C)c(O)c(C(C)(C)C)c1)Sc1cc(C(C)(C)C)c(O)c(C(C)(C)C)c1` [Probucol, reference compound], for which the “Stabilisierung von Plasma LDL: Verlängerung d. "lag-Phase" %” value in assay [2] is on record as 10%. For the same molecule, the “Hemmung der Cholesterbildung” value in assay [1] (reference substance at 10 »M, n=7, printed as positive inhibition) is 25-42%.

In the case of `CN(Cc1cc(C(C)(C)C)c(O)c(C(C)(C)C)c1)S(=O)(=O)c1ccc(Cl)cc1` [Beispiel 3, N-Methyl-4-chlorbenzolsulfo-(3,5-di-tert.butyl-4-hydroxy)benzylamid], the “Stabilisierung von Plasma LDL: Verlängerung d. "lag-Phase" %” value in assay [2] was found to be 40%. For the same molecule, the inhibition at 10 µM in assay [1] was determined as 54.9%.

With `CC(C)c1cc(C(C)C)c(S(=O)(=O)NCc2cc(C(C)(C)C)c(O)c(C(C)(C)C)c2)c(C(C)C)c1` [Beispiel 5.10, 2,4,6-tris-Isopropyl-benzolsulfo-(3,5-di-tert.butyl-4-hydroxy)benzylamid], in assay [2], the “Stabilisierung von Plasma LDL: Verlängerung d. "lag-Phase" %” value is 99%. Besides, in assay [1], the inhibition at 10 µM is 60.3% and the IC50 is 7 µM.

For the molecule `CC(C)(C)c1cc(CCNS(=O)(=O)c2ccc(F)cc2)cc(C(C)(C)C)c1O` [Beispiel 5.28, 2-[4-Fluorbenzolsulfo-(3,5-di-tert.butyl-4-hydroxy)]-phenethylamid], the S-Cholesterin in assay [3] (5 mg/kg/d by gavage in 2 ml Pflanzenöl) is 187 +/- 23 mg %; in assay [3] (15 mg/kg/d by gavage in 2 ml Pflanzenöl) it was 120 +/- 15 mg %; in assay [3] (50 mg/kg/d by gavage in 2 ml Pflanzenöl), 114 +/- 14 mg %; in assay [3] (100 mg/kg/d by gavage in 2 ml Pflanzenöl), 84 +/- 8 mg %. Moreover, the “% Kontrollen” value is recorded as 75% in assay [3] (5 mg/kg/d), 48% in assay [3] (15 mg/kg/d), 46% in assay [3] (50 mg/kg/d) and 33% in assay [3] (100 mg/kg/d). The “Stabilisierung von Plasma LDL: Verlängerung d. "lag-Phase" %” value in assay [2] is recorded as 25%. Also, in assay [1], the inhibition at 10 µM turned out to be 92.6%. In assay [1], the IC50 came to 1.2 µM.

On to `CC(Cc1cc(C(C)(C)C)c(O)c(C(C)(C)C)c1)NS(=O)(=O)C(C)C` (stereo not drawn) [Beispiel 5.31], for which, in assay [2], the “Stabilisierung von Plasma LDL: Verlängerung d. "lag-Phase" %” value is recorded as 18%. Also, in assay [1], the inhibition at 10 µM was found to be 33.9%.

As to `CC(C)c1cc(C(C)C)c(S(=O)(=O)NCCc2cc(C(C)(C)C)c(O)c(C(C)(C)C)c2)c(C(C)C)c1` [Beispiel 5.17], the “Stabilisierung von Plasma LDL: Verlängerung d. "lag-Phase" %” value in assay [2] is 50%. Further, in assay [1], the inhibition at 10 µM worked out at 78%.

Consider `CCCCS(=O)(=O)NCCCc1cc(C(C)(C)C)c(O)c(C(C)(C)C)c1` [Beispiel 5.19], for which, in assay [1], the inhibition at 10 µM was 43.8%.
